These results are taken from patent US6867305B2, “Synthesis of epothilones, intermediates thereto and analogues thereof” (Sloan-Kettering Institute for Cancer Research, priority 1996, dated 2005).

pIC50: −log10 of the molar value. In brackets after ≈: the same amount, converted by molar mass. Entries after “also recorded” stand apart in the source; their conditions may differ. Read-outs that look alike come from different tables or passages of the source.

The test system of data set [1] is K562 chronic myelocytic leukemia xenograft. Nature of the data set: Human tumor xenograft in nude mice. The class given is in vivo. Conditions: for Lowest Average Tumor Size (T/C) / Tumor Disappearance: Taxol 20 mg/kg, Q2Dx5, 6-hr i.v. infusion. Here is the method:
FIG. 34 depicts tumor size in nude mice bearing human leukemia […] tumor following 6 mg/kg C-15-Aza-EpoB, Q2D×6 and 30 mg/kg dEpoF, Q2ED×6 (i.v. infusion […].). K562 tumor cells (1×10^7 in 0.2 mL) were inoculated to nude mice on day 0. Mice were treated with 6 mg/kg aza-EpoB, 6 h-i.v. infusion on days 20, 22, 24, 26, 28 and 30 (Δ, n=3). The same group of mice were then treated with 30 mg/kg dEpoF, 6 h-i.v. infusion on days 42, 44, 46, 48, 52, and 54 (Δ, n=3). […] The control mice (∘, n=3) received vehicle only.
K562 tumor cells (1×10^7, in 0.2 ml/mouse) were implanted s.c. on day 0. […] The control mice (∘, n=4) received vehicle, Cremophor-ethanol (1:1), only. The vertical bars indicate mean tumor size in mm^3±S.E.
(§1) Depending on the tumor type, treatment started on day 10 to day 21 when subcutaneous tumor size reached 35-200 mm^3, except otherwise indicated. Tumor size and body-weight were recorded every other day (Q2D) and, for humane reasons, the animals were sacrificed when tumor size reached ≧10% of body-weight. Each group, including untreated control, consisted of 3-5 animals unless otherwise indicated.
(§2) Athymic nude mice bearing the nu/nu gene were used for all human tumor xenografts. Outbred, Swiss-background mice were obtained from Charles River Laboratories. Male mice 8 weeks or older weighing 22 g and up were used for most experiments. The drug was administered via the tail vein for 6 hr.-i.v. infusion. Each individual mouse was confined in a perforated Falcon polypropylene tube restrainer for drug administration. Tumor volume was assessed by measuring length×width×height (or width) using a caliper. The programmable Harvard PHD2000 syringe pump (Harvard Apparatus) with multi-track was used for i.v. infusion. […] All animal studies were conducted in accordance with the guidelines of the National Institutes of Health “Guide for the Care and Use of Animals” and the protocol approved by the Memorial Sloan-Kettering Cancer Center's Institutional Animal Care and Use Committee. In keeping with the policy of this committee for the humane treatment of tumor-bearing animals, mice were euthanized when tumors reached ≧10% of their total body weight.
(§3) Human tumor cells (5×10^6) or tumor tissue (30-50 mg) were implanted s.c. flank in nu/nu mice (Charles River Laboratories, Wilmington, Mass.). When tumor grew to a specified size, treatment was started by every-other day×5 with 6 hr i.v.-infusion, unless otherwise indicated. Tumor volume was measured with calipers in three dimensions (length×width×height or width). Body-weight changes and lethality were monitored every other day.

Data set [2] has as its system CCRF-CEM human T-cell acute lymphoblastic leukemia cells. The data set can be described thus: Tumor cell growth inhibition in vitro (XTT, 72 h). It counts as cell-based. Conditions: CCRF-CEM; for pIC50: 72 h incubation. Here is the method:
The fresh medium containing each drug was replenished every 7-14 days. […] In each case ,the drug-exposed cells were resuspended in fresh media for a minimum of 4 days before the experiments for the cell-growth inhibition was carried out.
The cells were cultured at an initial density of 2-5×10^4 cells per ml. They were maintained in a 5% CO2-humidified atmosphere at 37° C. in RPMI mediun 1640 (GIBCO/BRL) containing penicillin (100 units/ml), streptomycin (100 μg/ml) (GIBCO/BRL), and 5% heat-inactivated fetal bovine serum. For solid tumor cells growing in a monolayer (such as MCF-7/Adr), cytotoxicitiy of the drug was determined in 96-well microtiter plates by using the sulforhodamine B method as described by Skehan et al (23) for measuring the cellular protein content. For cells that were grown in suspension (such as CCRF-CEM and its sublines), cytotoxicitiy was measured by using the 2,-3-bis(2-methoxy-4-nitro-5-sulfophenyl)-5carboxanilide)-2H terazodium hydroxide (XTT)-microculture tetrazonium method (24) in duplicate in 96-well microtiter plates. For both methods, the absorbance of each well was measured with a microplate reader (EL-340, Bio-Tek, Burlington, Vt.). Each run entailed six or seven concentrations of the tested drugs. Dose-effect relationship data were analyzed with the median-effect plot (25) by using a previously described computer program (26).
For orientation: Tetrazolium dyes change colour on reduction, which living cells bring about.

Data set [3] relates to UL-3-B/Taxol.
For data set [4], the system named is CCRF-CEM leukemia xenograft. Conditions: for body-weight reduction on day 28: CCRF-CEM-bearing nude mice, 15-azaEpoB 6 mg/kg Q2D×6. Here is the method: Nude mice bearing well established CCRF-CEM tumor xenografts (average tumor size about 400 mm^3) were treated with 30 mg/kg of dEpoB or with 6 mg/kg of 15-azaEpoB, 6 hr-i.v. infusion Q2D×6 as shown in FIG. 37.
as §1, §2, §3

Data set [5] deals with MX-1 mammary carcinoma xenograft.
Data set [6] relates to UL-3-B/Taxol. The data set can be described thus: cells. Conditions: Homo sapiens.
Data set [7] can be described thus: Stability in plasma in vitro (HPLC). The class given is in vitro ADME, mouse. Here is the method: (FIG. 44). […] (FIG. 44).
Human blood plasma or nude mice plasma (300 μl) containing dEpoB (0.05-20 μg/ml) was added 30 μl of methanol and mixed for 2 min and then added 300 μl of methanol. The centrifuge supernatant was used for high performance liquid chromatography (HPLC). Nova-pak C18 column (15 cm) was used, with 50% acetonitrile/water with 0.8% triethylamine and 0.2% phosphoric acid as mobile phase. UV absorbance at 250 nm was measured.
Stability of dEpoF in animal plasmas. A HPLC method is set up using a NovaPak C 18, 3.9×300 mm column with a mobile phase of 50% acetonitrile in 50 mM potassium dihydrogen phosphate with 0.01% triethylamine at a flow rate of 0.8 ml/min. dEpoF is monitored at a wavelength of 260 nm and has a retention time of about 10 min. The plasma stability is performed with mouse plasma and dog plasma purchased from Pel-Freeze and human plasma from the blood center in MSKCC. A small amount of dEpoF was dissolved in 50% methanol/water at a concentration of 500 μg/mL. An aliquot of 20 μL is then spiked to 2 mL of plasma to a final plasma concentration of 5 μg/mL. The plasma samples were kept at 37 degree. […] Twenty μL of the supernatant was analyzed by HPLC without further modification. dEpoF disappears rapidly with half life about one hour in the commercial frozen mouse plasma alone, but stable in dog and human plasma.

Where [8] appears, read: CCRF-CEM, i.v. infusion, FIG. 5.
The mark [9] stands for this setting: K562, i.v. infusion (dEpoF vs 15-azaEpoB).
Setting [10] is: CCRF/CEM, dEpoB 40 mg/kg, Taxol 20 mg/kg, Q2Dx4, 6-hr i.v. infusion.

On to `CC(=O)O[C@H]1C(=O)[C@@]2(C)[C@H]([C@H](OC(=O)c3ccccc3)[C@]3(O)C[C@H](OC(=O)[C@H](O)[C@@H](NC(=O)c4ccccc4)c4ccccc4)C(C)=C1C3(C)C)[C@]1(OC(C)=O)CO[C@@H]1C[C@@H]2O` [Taxol, paclitaxel, reference compound], for which the “Lowest Average Tumor Size (T/C)” value in data set [1] (K562, dEpoB 30 mg/kg) is given as 0.18. Besides, the “Tumor Disappearance” value in data set [1] (K562, dEpoB 30 mg/kg) is listed as 0/6. Further, the pIC50 is 8.92 in data set [2] and 7.87 in the data set with UL-3-B/Taxol [3] (UL-3-B/Taxol). For the same compound, the solubility in “physchem” (water) is around 600 µg/mL (≈ 0.703 mM).
Turning to `C/C(=C\c1csc(C)n1)C1C[C@@H]2O[C@]2(C)CCC[C@H](C)[C@H](O)[C@@H](C)C(=O)C(C)(C)C(O)CC(=O)N1` (stereo partly shown) [aza-EpoB, aza-epothilone B], the “Therapeutic Effect Rank Order” value is on record as “dEpoF>>>15-azaEpoB” in data set [4] (setting [8]); “dEpoF>>>15-azaEpoB” in data set [1] (setting [9]); “dEpoB>>>15-azaEpoB” in data set [5] (mouse, in vivo, iv). Moreover, the “therapeutic effect on tumor growth” value in data set [4] (CCRF-CEM, tumor about 400 mm^3, 15-azaEpoB 6 mg/kg, 6 hr-i.v. infusion Q2D×6) is on record as “Moderate suppression of tumor growth”; in data set [1] (K562, aza-EpoB 6 mg/kg Q2D×6, 6 h-i.v. infusion (FIG. 34)) it was “inhibited tumor growth but did not lead to a reduction in the size of the tumor”; in data set [1] (K562, aza-EpoB 6 mg/kg Q2D×6, 6 h-i.v. infusion (FIG. 34), listed as azaEpoB), “strongly suppressed tumor growth but did not shrink the tumor”. Besides, the “body-weight reduction on day 28” value in data set [4] (dEpoF 30 mg/kg) was “about 10%”. For the same compound, in data set [5] (MX-1-bearing mice, azaEpoB 6 mg/kg), the “mice died of toxicity on day 22” value is recorded as “one out of five”. Also, the pIC50 in data set [2] (Homo sapiens, read-out: IC50) was 8.68; in the data set on UL-3-B/Taxol [6], 7.82. Further, the “cross-resistance (fold of resistance vs parent cell line)” value with UL-3-B/Taxol [3] is 0.015[12.5] x.
With `C/C1=C/C[C@@H](/C(C)=C/c2csc(C)n2)OC(=O)C[C@H](O)C(C)(C)C(=O)[C@H](C)[C@@H](O)[C@@H](C)CCC1` [dEpoB, 12,13-desoxyepothilone B], the half-life in data set [7] (nude, mouse, plasma, nude mice plasma, HPLC, read-out: t1/2 in nude mice plasma in vitro) is around 20 min. The “Therapeutic Effect Rank Order” value in data set [4] (CCRF-CEM, i.v. infusion (dEpoB vs Taxol)) was “dEpoB≈Taxol”; in data set [1] (K562, i.v. infusion, FIG. 3 & 4) it was “dEpoB>>>VBL> Taxol> Adriamycin”; in data set [5] (mouse, in vivo) it was “dEpoB>Adriamycin>Taxol”; in data set [5] (mouse, in vivo, ip), “dEpoB>Camptothecin>Taxol>VBL, EpoB”. Besides, the “Lowest Average Tumor Size (T/C)” value in data set [4] (setting [10]) is 0; in data set [1] (K562, dEpoB 30 mg/kg), 0; in data set [5] (mouse, in vivo), 0. For the same compound, the “Tumor Disappearance” value in data set [4] (setting [10]) is listed as 2/2; in data set [1] (K562, dEpoB 30 mg/kg), 5/5; in data set [5] (mouse, in vivo) it was 5/5. Also, in data set [1] (K562, single course Q2D×3, dEpoB 30 mg/kg (FIG. 37)), the “therapeutic effect of single course” value is given as “disappearance of K562 xenografts for four weeks”. Besides, the therapeutic effect entry in data set [1] (K562, dEpoB 30 mg/kg, Taxol 20 mg/kg 6 hr i.v. infusion, Adriamycin 3 mg/kg, vinblastine 2.5 mg/kg i.v., every other day from day 20 (FIG. 36)) is reported as “Complete remission”. In data set [1] (K562 tumor as large as 880 mm^3 after paclitaxel, then dEpoB 30 mg/kg (Q2D×3)×3), the “tumor size after treatment” value is “less than 20 mm^3”. In data set [5] (MX-1, dEpoB 30 mg/kg Q2D×6 (day 10-20) then Q2D×5 (day 26-34)), the “tumor disappearance on day 22” value is on record as “⅕”. Moreover, in data set [5] (MX-1, dEpoB 30 mg/kg Q2D×6 then Q2D×5), the “tumor disappearance on day 38” value is reported as “⅖”. Moreover, in data set [5] (MX-1-bearing mice, after dEpoB second cycle), the “body-weight gain during day 36-40” value is listed as “about 2 gm”. Further, in data set [5] (MX-1-bearing mice, dEpoB 30 mg/kg Q2D (day 10-20)), the “body-weight decrease on day 22” value was “about 3.5 gm”. The “body-weight drop on day 36” value in data set [5] (MX-1-bearing mice, dEpoB second cycle Q2D×5 (day 26-34)) is “about 4.1 gm”. In addition, the pIC50 in data set [2] was 8.13; in data set [2] (Homo sapiens, 72 h), 8.02; in the data set on UL-3-B/Taxol [6], 8.15. For the same compound, the solubility in “physchem” was around 10000 µg/mL (≈ 20.3 mM).
On to `C/C1=C/C[C@@H](/C(C)=C/c2csc(CO)n2)OC(=O)C[C@H](O)C(C)(C)C(=O)[C@H](C)[C@@H](O)[C@@H](C)CCC1` [dEpoF, 12,13-Desoxyepothilone F], for which the “half life in mouse plasma” value in data set [7] (commercial frozen mouse plasma, 5 μg/mL, 37 degree) is “about one”. The “tumor free mice on day 28” value in data set [4] (CCRF-CEM, dEpoF 30 mg/kg, 6 hr-i.v. infusion Q2D×6) is on record as “one of three mice was tumor free”. Besides, the “Therapeutic Effect Rank Order” value in data set [4] (setting [8]) and in data set [1] (setting [9]) was “dEpoF>>>15-azaEpoB” in each case. In data set [4] (dEpoF 30 mg/kg), the “body-weight reduction on day 28” value is “about 10%”. Further, in data set [1] (K562, aza-EpoB 6 mg/kg then dEpoF 30 mg/kg, n=3), the “tumor free mice on day 76” value was “all three mice were tumor free”. In addition, the “therapeutic effect on tumor growth” value in data set [1] (K562, dEpoF 30 mg/kg Q2D×6 in the same mice after aza-EpoB, tumor near 500 mm^3 (FIG. 34)) is listed as “readily induced reduction in the size of the tumor to the point of remission; also recorded: The tumor mass eventually disappeared three weeks later”; in data set [5] (MX-1, dEpoF 15 mg/kg Q2D×5, 6 hr-i.v. infusion), “tumor growth was partially suppressed”. The “tumor disappearance (tumor free mice)” value in data set [5] (MX-1, dEpoF 30 mg/kg Q2D×5, 6 hr-i.v. infusion) is reported as “three out of five”. The “potency relative to dEpoB (times less potent)” value in data set [2] is recorded as “slightly less potent than dEpoB”. Moreover, the pIC50 in data set [2] was 8.57; with UL-3-B/Taxol [6] it was 8.17. The compound also yielded a solubility in the data set “physchem” of around 25000 µg/mL (≈ 49.2 mM).

A word on the pIC50: it is −log10 of the IC50, conventionally taken in molar units. By solubility is commonly meant the concentration that dissolves in the medium under given conditions. Higher therefore signals a readily soluble substance.
